From patent US20090318403A1, “ANTIBIOTIC COMPOSITION” (Prosensa Technologies B.V., priority 2006, published 2009)
Like-named read-outs stand apart in the source and are kept apart here.

Assays:
Type in all cases: cell-based
[1] = test system: P. aeruginosa clinical isolate PA7252; experiment: Growth inhibition (MIC) of clinical P. aeruginosa isolate PA7252; conditions: Pseudomonas aeruginosa, isolate PA7252, 10^4 bacteria in 20% LB, 20 h
[2] = test system: P. aeruginosa clinical isolate PA7253; experiment: Growth inhibition (MIC) of clinical P. aeruginosa isolate PA7253; conditions: Pseudomonas aeruginosa, isolate PA7253, 10^4 bacteria in 20% LB, 20 h
[3] = test system: multidrug-resistant Acinetobacter baumannii LUH5771; experiment: Growth inhibition of multidrug-resistant A. baumannii LUH5771; conditions: for Susceptibility of the isolate to treatment: multi-resistant A. baumannii clinical isolate
[4] = test system: Pseudomonas aeruginosa PA01; experiment: Growth inhibition (MIC, OD550 after 20 h) of P. aeruginosa PA01; conditions: for MIC: Pseudomonas aeruginosa; for MIC of antibiotic alone: antibiotic alone (Table 1); for MIC of antibiotic: PA01, inoculum 10^4 bacteria in 20% LB, after 20 h, antibiotic alone (Table 3)
[5] = test system: P. aeruginosa clinical isolate PA7243; experiment: Growth inhibition (MIC) of clinical P. aeruginosa isolate PA7243; conditions: Pseudomonas aeruginosa, isolate PA7243, 10^4 bacteria in 20% LB, 20 h
[6] = test system: ceftazidime-resistant P. aeruginosa clinical isolate PA 24-7-3; experiment: Growth inhibition (MIC) of ceftazidime-resistant P. aeruginosa PA 24-7-3; conditions: Pseudomonas aeruginosa, PA 24-7-3, 20% LB
[7] = test system: P. aeruginosa clinical isolate PA7249; experiment: Growth inhibition (MIC) of clinical P. aeruginosa isolate PA7249; conditions: Pseudomonas aeruginosa, isolate PA7249, 10^4 bacteria in 20% LB, 20 h
[8] = test system: P. aeruginosa clinical isolate PA7247; experiment: Growth inhibition (MIC) of clinical P. aeruginosa isolate PA7247; conditions: Pseudomonas aeruginosa, isolate PA7247, 10^4 bacteria in 20% LB, 20 h
[9] = test system: extended β-lactamase (ESBL) producing Klebsiella pneumoniae LUH5344; experiment: Growth inhibition (MIC) of ESBL producing K. pneumoniae LUH5344; conditions: K. pneumoniae LUH5344, 100% LB
[10] = Sensitizer effect of short lipoamines (our studies)
Excerpt: R1 in formula I represents a linear or branched alkyl group comprising at least 7 atoms in a straight chain. In this context alkyl group means that it is a group containing carbon atoms. For instance, for the lipoamines butylamine, pentylamine and hexylamine as disclosed in JP 57155954 no effect was found in our studies. It is understood that if not specified otherwise, C, O, N and S atoms in the alkyl group further comprise hydrogen atoms to properly satisfy the valency of the respective atom. At least 7 atoms in a straight chain is with respect to the longest group of atoms, not including hydrogen, directly connected to one another by covalent bonds starting from the nitrogen (N) in formula I. Such a group of at least 7 atoms in a straight chain thus can be part of cyclic elements, including aromatic rings, in R1, or in other words, one or more (saturated and/or unsaturated) rings can form (part of) the alkyl group comprising at least 7 atoms in a straight chain. The alkyl group may comprise one or more O, N and/or S atoms, which means that the chain of carbon atoms may be interrupted by one or more O, N and/or S atoms. It is preferred the alkyl group comprises an ω-CH3 group, or in other words starting from the nitrogen (N) in formula I the longest alkyl group preferably ends with a CH3.

[11] = PA01, 20% LB, 20 h, sensitizer alone

CCCCCCCC/C=C\CCCCCCCCN [oleylamine]
MIC ([1]; read-out: MIC oleylamine): ≥ 40 µM
MIC ([2]; read-out: MIC oleylamine): > 40 µM
oleylamine bactericidal concentration ([3]; A. baumannii LUH5771, oleylamine alone): at ≧5 μM
Susceptibility of the isolate to treatment [3]: resistant
MIC [4, 11]: ≥ 20 µM
MIC ([5]; read-out: MIC oleylamine): > 40 µM
MIC ([6]; read-out: MIC oleylamine): ≥ 20 µM
MIC ([7]; read-out: MIC oleylamine): > 40 µM
MIC ([8]; read-out: MIC oleylamine): ≥ 40 µM
MIC ([9]; read-out: MIC oleylamine): ≥ 40 µM

CCCCCCCCCCCCCCCCCCN [stearylamine]
MIC [4, 11]: ≥ 20 µM

CCCCCN [pentylamine]
Sensitizer effect [10]: no effect

CC1(C)S[C@@H]2[C@H](NC(=O)[C@H](N)c3ccccc3)C(=O)N2[C@H]1C(=O)O [ampicillin]
MIC ([1]; read-out: MIC ampicillin): > 200 µg/mL
MIC ([2]; read-out: MIC ampicillin): > 200 µg/mL
Susceptibility of the isolate to treatment [3]: resistant
MIC of antibiotic alone ([4]; PA01, 20% LB, 20 h): MIC >200 μg/mL
MIC of antibiotic [4]: >200 µg/mL
MIC ([5]; read-out: MIC ampicillin): > 200 µg/mL
MIC ([7]; read-out: MIC ampicillin): > 200 µg/mL
MIC ([8]; read-out: MIC ampicillin): > 200 µg/mL

CC(C)c1ccc2c(c1)CC[C@H]1[C@](C)(CN)CCC[C@]21C [dehydroabietylamine]
MIC of sensitizer alone [4, 11]: MIC at ≧20 μM

CC(=O)NC[C@H]1CN(c2ccc(N3CCOCC3)c(F)c2)C(=O)O1 [linezolid]
MIC of antibiotic alone ([4]; PA01, 20% LB, 20 h): MIC >200 ug/mL μg/mL

CC/C(=C(\c1ccccc1)c1ccc(OCCN(C)C)cc1)c1ccccc1 [tamoxifen]
MIC [4, 11]: ≥ 20 µM

gentamicin
MIC gentamicin ([3]; A. baumannii LUH5771, gentamicin alone): >200 µg·mL
Susceptibility of the isolate to treatment [3]: resistant

CCCCN [butylamine]
Sensitizer effect [10]: no effect

CC(C)(O/N=C(\C(=O)N[C@@H]1C(=O)N2C(C(=O)[O-])=C(C[n+]3ccccc3)CS[C@H]12)c1csc(N)n1)C(=O)O [ceftazidime]
MIC ([6]; read-out: MIC ceftazidime): 6.25 µg/mL
MIC ([9]; read-out: MIC ceftazidime): 6.25 µg/mL

CCCCCCN [hexylamine]
Sensitizer effect [10]: no effect

CCn1cc(C(=O)O)c(=O)c2ccc(C)nc21 [nalidixic acid]
MIC of antibiotic [4]: 25 µg/mL
